Measurements from patent publication US20070224321A1, “Baked Goods Comprising High-Potency Sweetener” (THE COCA-COLA COMPANY, priority 2005, published 2007).

Assay type: physicochemical
Procedure: A solution of rebaudioside A (>97% pure by HPLC ) was prepared in double distilled water (12.5 gm in 50 mL, 25% concentration) by stirring the mixture at 40° C. for 5 minutes. An amorphous form of_rebaudioside A was formed by immediately using the clear solution for spray drying with the Lab-Plant spray drier SD-04 instrument (Lab-Plant Ltd., West Yorkshire, U.K.). The solution was fed through the feed pump into the nozzle atomizer which atomized it into a spray of droplets with the help of a constant flow of nitrogen/air. […] This dry powder (11-12 g, H2O 6.74%) was discharged continuously from the drying chamber and was collected in a bottle.

## rebaudioside A [Form 4]
  solubility in water at room temperature: > 35.0%
